In the series the test system is CCRIS mutagenicity, Ames/micronucleus/aberration tests. The experiment in a line: CCRIS mutagenicity studies.
Setting [1] is: Test System: AMES SALMONELLA TYPHIMURIUM, Strain/Indicator: TA98, Metabolic Activation: NONE, Method: STANDARD PLATE.
The mark [2] stands for this setting: Test System: AMES SALMONELLA TYPHIMURIUM, Strain/Indicator: TA100, Metabolic Activation: NONE, Method: STANDARD PLATE.

The source made the active and inactive calls. How the calls were made is not given here.

For the compound `Cc1c2c3ccccc3nc-2n(C)c2ccccc12`, the mutagenic call is “active; positive” (Test System: AMES SALMONELLA TYPHIMURIUM, Strain/Indicator: TA97, Metabolic Activation: RAT, LIVER, S-9, AROCLOR 1254, Method: STANDARD PLATE) and “active; positive” (Test System: AMES SALMONELLA TYPHIMURIUM, Strain/Indicator: TA102, Metabolic Activation: RAT, LIVER, S-9, AROCLOR 1254, Method: STANDARD PLATE).
For `CC(C)[C@@H]1CC[C@@H](C)C[C@H]1O`, the mutagenic call is, setting by setting: (Test System: AMES SALMONELLA TYPHIMURIUM, Strain/Indicator: TA97, Metabolic Activation: NONE, Method: PREINCUBATION) “inactive; negative”; (Test System: AMES SALMONELLA TYPHIMURIUM, Strain/Indicator: TA97, Metabolic Activation: RAT, LIVER, S-9, AROCLOR 1254, Method: PREINCUBATION) “inactive; negative”; (Test System: AMES SALMONELLA TYPHIMURIUM, Strain/Indicator: TA97A, Metabolic Activation: NONE, Method: STANDARD PLATE) “inactive; negative”; (Test System: AMES SALMONELLA TYPHIMURIUM, Strain/Indicator: TA97A, Metabolic Activation: RAT LIVER S-9, AROCLOR 1254, Method: STANDARD PLATE) “inactive; negative”; under setting [1], “inactive; negative”; (Test System: AMES SALMONELLA TYPHIMURIUM, Strain/Indicator: TA98, Metabolic Activation: RAT LIVER S-9, AROCLOR 1254, Method: STANDARD PLATE) “inactive; negative”. For the same compound, the mutagenic call (Test System: AMES SALMONELLA TYPHIMURIUM, Strain/Indicator: TA98, Metabolic Activation: RAT, LIVER, S-9, AROCLOR 1254, Method: STANDARD PLATE) was “inactive; negative”; the mutagenic call under setting [2] is “inactive; negative”; the mutagenic call (Test System: AMES SALMONELLA TYPHIMURIUM, Strain/Indicator: TA100, Metabolic Activation: RAT LIVER S-9, AROCLOR 1254, Method: STANDARD PLATE) is “inactive; negative”; the mutagenic call (Test System: AMES SALMONELLA TYPHIMURIUM, Strain/Indicator: TA100, Metabolic Activation: RAT, LIVER, S-9, AROCLOR 1254, Method: STANDARD PLATE) is “inactive; negative”; the mutagenic call (Test System: AMES SALMONELLA TYPHIMURIUM, Strain/Indicator: TA102, Metabolic Activation: NONE, Method: PREINCUBATION) was “inactive; negative”; the mutagenic call (Test System: AMES SALMONELLA TYPHIMURIUM, Strain/Indicator: TA102, Metabolic Activation: NONE, Method: STANDARD PLATE) is “inactive; negative”. Moreover, the mutagenic call is, setting by setting: (Test System: AMES SALMONELLA TYPHIMURIUM, Strain/Indicator: TA102, Metabolic Activation: RAT LIVER S-9, AROCLOR 1254, Method: STANDARD PLATE) “inactive; negative”; (Test System: AMES SALMONELLA TYPHIMURIUM, Strain/Indicator: TA102, Metabolic Activation: RAT, LIVER, S-9, AROCLOR 1254, Method: PREINCUBATION) “inactive; negative”; (Test System: AMES SALMONELLA TYPHIMURIUM, Strain/Indicator: TA1535, Metabolic Activation: NONE, Method: STANDARD PLATE) “inactive; negative”; (Test System: AMES SALMONELLA TYPHIMURIUM, Strain/Indicator: TA1535, Metabolic Activation: RAT, LIVER, S-9, AROCLOR 1254, Method: STANDARD PLATE) “inactive; negative”; (Test System: AMES SALMONELLA TYPHIMURIUM, Strain/Indicator: TA1537, Metabolic Activation: NONE, Method: STANDARD PLATE) “inactive; negative”; (Test System: AMES SALMONELLA TYPHIMURIUM, Strain/Indicator: TA1537, Metabolic Activation: RAT, LIVER, S-9, AROCLOR 1254, Method: STANDARD PLATE) “inactive; negative”.
With `CC/C1=C/[C@@H](C)[C@](C)(OC(C)=O)C(=O)OC/C2=C/CN(C)CC[C@@H](OC1=O)C2=O`, the mutagenic call (Test System: UDS RAT HEPATOCYTES, Strain/Indicator: THY INCORP, Metabolic Activation: NONE, Method: AUTORADIOGRAPHY) is “active; positive”.
As to `OC1c2cccc3c2[C@]2(O[C@H]2C1O)c1ccccc1-3` (some centres undefined), the mutagenic call is “active; positive” (Test System: AMES SALMONELLA TYPHIMURIUM, Strain/Indicator: TM677, Metabolic Activation: NONE, Method: PREINCUBATION) and “active; positive” (Test System: AMES SALMONELLA TYPHIMURIUM, Strain/Indicator: TM677, Metabolic Activation: RAT, LIVER, POSTMITOCHONDRIAL SUPERNATANT, AROCLOR 1254, Method: PREINCUBATION).
Take `c1ccc2c(c1)Nc1ccccc1S2`: the mutagenic call is, setting by setting: (Test System: AMES SALMONELLA TYPHIMURIUM, Strain/Indicator: TA98, Metabolic Activation: HAMSTER, LIVER, S-9, AROCLOR 1254 (10%), Method: PREINCUBATION) “inactive; negative”; (Test System: AMES SALMONELLA TYPHIMURIUM, Strain/Indicator: TA98, Metabolic Activation: NONE, Method: PREINCUBATION) “inactive; negative”; (Test System: AMES SALMONELLA TYPHIMURIUM, Strain/Indicator: TA98, Metabolic Activation: NONE, Method: SPOT TEST) “inactive; negative”; (Test System: AMES SALMONELLA TYPHIMURIUM, Strain/Indicator: TA98, Metabolic Activation: RAT, LIVER, S-9, AROCLOR 1254 (10%), Method: PREINCUBATION) “inactive; negative”; (Test System: AMES SALMONELLA TYPHIMURIUM, Strain/Indicator: TA100, Metabolic Activation: HAMSTER, LIVER, S-9, AROCLOR 1254 (10%), Method: PREINCUBATION) “inactive; negative”; (Test System: AMES SALMONELLA TYPHIMURIUM, Strain/Indicator: TA100, Metabolic Activation: NONE, Method: PREINCUBATION) “inactive; negative”. Besides, the mutagenic call (Test System: AMES SALMONELLA TYPHIMURIUM, Strain/Indicator: TA100, Metabolic Activation: RAT, LIVER, S-9, AROCLOR 1254 (10%), Method: PREINCUBATION) is “inactive; negative”; the mutagenic call (Test System: AMES SALMONELLA TYPHIMURIUM, Strain/Indicator: TA1535, Metabolic Activation: HAMSTER, LIVER, S-9, AROCLOR 1254 (10%), Method: PREINCUBATION) was “inactive; negative”; the mutagenic call (Test System: AMES SALMONELLA TYPHIMURIUM, Strain/Indicator: TA1535, Metabolic Activation: NONE, Method: PREINCUBATION) is “inactive; negative”; the mutagenic call (Test System: AMES SALMONELLA TYPHIMURIUM, Strain/Indicator: TA1535, Metabolic Activation: RAT, LIVER, S-9, AROCLOR 1254 (10%), Method: PREINCUBATION) was “inactive; negative”; the mutagenic call (Test System: AMES SALMONELLA TYPHIMURIUM, Strain/Indicator: TA1537, Metabolic Activation: HAMSTER, LIVER, S-9, AROCLOR 1254 (10%), Method: PREINCUBATION) was “inactive; negative”; the mutagenic call (Test System: AMES SALMONELLA TYPHIMURIUM, Strain/Indicator: TA1537, Metabolic Activation: NONE, Method: PREINCUBATION) was “inactive; negative”. Moreover, the mutagenic call (Test System: AMES SALMONELLA TYPHIMURIUM, Strain/Indicator: TA1537, Metabolic Activation: RAT, LIVER, S-9, AROCLOR 1254 (10%), Method: PREINCUBATION) is “inactive; negative”.
As for `Cc1c(N)ccc(N=Nc2ccccc2)c1N`, the mutagenic call is, setting by setting: (Test System: AMES SALMONELLA TYPHIMURIUM, Strain/Indicator: TA100, Metabolic Activation: HUMAN, LIVER, S-9, Method: PREINCUBATION) “active; positive”; (Test System: AMES SALMONELLA TYPHIMURIUM, Strain/Indicator: TA100, Metabolic Activation: RAT, LIVER, S-9, BETA-NAPHTHOFLAVONE, Method: PREINCUBATION) “active; positive”; (Test System: AMES SALMONELLA TYPHIMURIUM, Strain/Indicator: TA100, Metabolic Activation: RAT, LIVER, S-9, PHENOBARBITAL, Method: PREINCUBATION) “active; positive”; (Test System: AMES SALMONELLA TYPHIMURIUM, Strain/Indicator: TA100, Metabolic Activation: RAT, LIVER, S-9, Method: PREINCUBATION) “active; positive”; (Test System: UDS RODENT HEPATOCYTES, Strain/Indicator: THY INCORP, Metabolic Activation: NONE, Method: AUTORADIOGRAPHY) “active; positive”.
For the compound `OC1c2ccc3cccnc3c2C2OC2C1O` (centres undefined), the mutagenic call under setting [2] was “active; positive”.
In the case of `CCOP(=O)(OCC)Oc1cc(-c2ccccc2)on1`, the mutagenic call runs as follows: under setting [1], “inactive; negative”; (Test System: AMES SALMONELLA TYPHIMURIUM, Strain/Indicator: TA98, Metabolic Activation: RAT, LIVER, S-9, Method: STANDARD PLATE) “inactive; negative”; under setting [2], “inactive; negative”; (Test System: AMES SALMONELLA TYPHIMURIUM, Strain/Indicator: TA100, Metabolic Activation: RAT, LIVER, S-9, Method: STANDARD PLATE) “inactive; negative”.
As for `O=[N+]([O-])c1ccc(OC[C@H]2CO2)cc1`, under setting [2], the mutagenic call is “active; positive”.
Take `O=c1cc(-c2ccc(O)cc2)oc2cc(O)c([C@@H]3O[C@H](CO)[C@@H](O)[C@H](O)[C@H]3O)c(O)c12`: the mutagenic call by setting is: (Test System: Ames Salmonella typhimurium, Strain/Indicator: TA98, Metabolic Activation: None, Method: Standard plate) “inactive; negative”; (Test System: Ames Salmonella typhimurium, Strain/Indicator: TA98, Metabolic Activation: Rat, Liver, S-9, Aroclor 1254, Method: Standard plate) “inactive; negative”.

The values above are taken from PubChem BioAssay AID1259407 (Chemical Carcinogenesis Research Information System (CCRIS), 2018).
